From patent US8049014B2, “Aminoquinoline derivatives, preparation method thereof and pharmaceutical composition comprising the same” (Korea Institute of Science and Technology, priority 2009, dated 2011) come the findings set out here.

A word on the GI50: it is the concentration at which growth is held to half of that of the control. Higher therefore signals lower sensitivity of the cells.

In test [1] the test system is A375 melanoma tumor cells. The test can be described thus: Anti-proliferative effect on melanoma tumor cells (MTT reduction assay). The class given is cell-based. The method, then: (§1) 10% of fetal bovine serum (FBS) and 1% of penicillin/streptomycin were put into a Dulbecco's Modified Eagle (DMEM) medium, and A375P tumor cells obtained from ATCC was incubated in the above medium under a 5% CO2 atmosphere at 37° C. A375P cells were taken into 0.05% trypsin-0.02% ethylene-diamine tetraacetic acid (EDTA) and seeded it into wells of 96 well plate with 5×10^3 cells/well, and the viability of the cells was determined with a conventional [3-(4,5-dimethylthiazol-2-yl)-2,5-diphenyltetrazolium bromide, MTT] reduction assay. In the MTT efficacy experimentation, 15 μL of dye per well was put into the wells in accordance with the protocol of CellTiter 96® Assay (Promega), and then incubated for two hours, into which 100 μL of stop solution was added. The resultant was read after 24 hours. After one day of the plating, the obtained material was treated with a compound of the present invention. When it was treated with the compound, 10 mM of stock solution was prepared, and gradually diluted to one-third in dimethyl sulfoxide (DMSO). A test compound plate was prepared with 12 points, into which 0.5 μL was put (final concentration was DMSO 0.5%). Absorbance was read at a wavelength of 590 nm using EnVision 2103 (Perkin Elmer Boston, Mass., US), and GI50 values were calculated using GraphPad Prism 4.0 software.
(§2) GI50 values indicating inhibition of the compounds according to the examples of the present invention and control substances, on the proliferation of A375 melanoma tumor cells and HS27 fibroblasts. Sorafenib (BAY43-9006, Nexavar) which has been known as a substance having a good anti-proliferative effect on the melanoma tumor cells was used as a control substance.
In general terms: Formazan colour is commonly taken as a measure of viable cells.

Another test deals with HS27 fibroblasts. Description: Inhibition of proliferation of HS27 fibroblasts (selectivity, MTT reduction assay). The format is cell-based. Particulars: Homo sapiens. How it is done:
as §1, §2

Setting [2] is: Homo sapiens, A-375, A375 melanoma tumor cells.

Where only a bound is given, the exact number is not on record here.

`Nc1cccc2c(Oc3ccc(NC(=O)Nc4ccc(Cl)c(C(F)(F)F)c4)cc3)ccnc12` [Compound 1a, 1-[4-(8-aminoquinolin-4-yloxy)phenyl]-3-(4-chloro-3-trifluoromethylphenyl)urea]: the GI50 in test [1] (setting [2]) is 3.74 µM; with HS27 fibroblasts, 6.71 µM.

Consider `Nc1cccc2c(Oc3ccc(NC(=O)c4ccc(Cl)c(C(F)(F)F)c4)cc3)ccnc12` [Compound 1b, N-[4-(8-aminoquinolin-4-yloxy)phenyl]-4-chloro-3-trifluoromethylbenzamide], for which the GI50 in test [1] (setting [2]) turned out to be 5.69 µM; in the test with HS27 fibroblasts it was 7.63 µM.

As to `CC(=O)Nc1cccc2c(Oc3ccc(NC(=O)Nc4ccc(Cl)c(C(F)(F)F)c4)cc3)ccnc12` [Compound 1c, 1-[4-(8-acetylaminoquinolin-4-yloxy)phenyl]-3-(4-chloro-3-trifluoro-methylphenyl)urea], the concentration for 50% growth inhibition (GI50) in test [1] (setting [2]) was found to be 4.19 µM; in the test with HS27 fibroblasts, 6.02 µM.

`CC(=O)Nc1cccc2c(Oc3ccc(NC(=O)c4ccc(Cl)c(C(F)(F)F)c4)cc3)ccnc12` [Compound 1d, N-[4-(8-acetylaminoquinolin-4-yloxy)phenyl]-4-chloro-3-trifluoromethylbenzamide]: the 50% growth inhibitory concentration (GI50) is 3.14 µM in test [1] (setting [2]) and 5.47 µM in the test on HS27 fibroblasts.

Take `O=C(Nc1ccc(Oc2ccnc3c(NC(=O)c4ccccc4)cccc23)cc1)c1ccc(Cl)c(C(F)(F)F)c1` [Compound 1e, N-[4-(8-benzoylaminoquinolin-4-yloxy)phenyl]-4-chloro-3-trifluoromethylbenzamide]: the 50% growth inhibitory concentration (GI50) is 0.8 µM in test [1] (A375 melanoma tumor cells), 0.77 to 0.8 µM in test [1] (setting [2]) and above 20 µM with HS27 fibroblasts.

With `Nc1cccc2c(Oc3cccc(NC(=O)Nc4ccc(Cl)c(C(F)(F)F)c4)c3)ccnc12` [Compound 1f, 1-[3-(8-aminoquinolin-4-yloxy)phenyl]-3-(4-chloro-3-trifluoromethylphenyl)urea], the results for the concentration for 50% growth inhibition (GI50) (in test [1] (setting [2]); with HS27 fibroblasts) were 2.56 µM and 10.4 µM, respectively.

Take `Nc1cccc2c(Oc3cccc(NC(=O)c4ccc(Cl)c(C(F)(F)F)c4)c3)ccnc12` [Compound 1g, N-[3-(8-aminoquinolin-4-yloxy)phenyl]-4-chloro-3-trifluoromethylbenzamide]: the 50% growth inhibitory concentration (GI50) in test [1] (setting [2]) is 6.73 µM; with HS27 fibroblasts it was above 20 µM.

Turning to `CC(=O)Nc1cccc2c(Oc3cccc(NC(=O)Nc4ccc(Cl)c(C(F)(F)F)c4)c3)ccnc12` [Compound 1h, 1-[3-(8-acetylaminoquinolin-4-yloxy)phenyl]-3-(4-chloro-3-trifluoromethylphenyl)urea], the results for the GI50 (in test [1] (setting [2]); in the test on HS27 fibroblasts) were 2.32 µM and 5.68 µM, respectively.

`CC(=O)Nc1cccc2c(Oc3cccc(NC(=O)c4ccc(Cl)c(C(F)(F)F)c4)c3)ccnc12` [Compound 1i, N-[3-(8-acetylaminoquinolin-4-yloxy)phenyl]-4-chloro-3-trifluoromethylbenzamide]: the GI50 is 3.49 µM in test [1] (setting [2]) and above 20 µM in the test with HS27 fibroblasts.

Consider `O=C(Nc1cccc(Oc2ccnc3c(NC(=O)c4ccccc4)cccc23)c1)c1ccc(Cl)c(C(F)(F)F)c1` [Compound 1j, N-[3-(8-benzoylaminoquinolin-4-yloxy)phenyl]-4-chloro-3-trifluoromethylbenzamide], for which the values for the 50% growth inhibitory concentration (GI50) (in test [1] (A375 melanoma tumor cells); in test [1] (setting [2]); in the test on HS27 fibroblasts) were 0.78 µM, 0.77 to 0.8 µM and above 20 µM, respectively.

With `CC(=O)Nc1cccc2c(Oc3cc(NC(=O)c4ccc(Cl)c(C(F)(F)F)c4)ccc3C)ccnc12` [Compound 1k, N-[3-(8-acetylaminoquinolin-4-yloxy)-4-methylphenyl]-4-chloro-3-trifluoromethylbenzamide], the results for the GI50 (in test [1] (setting [2]); with HS27 fibroblasts) were 1.3 µM and above 20 µM, respectively.

Take `CC(=O)Nc1cccc2c(Oc3cc(NC(=O)c4cccc(C(F)(F)F)c4)ccc3C)ccnc12` [Compound 1l, N-[3-(8-acetylaminoquinolin-4-yloxy)-4-methylphenyl]-3-trifluoromethylbenzamide]: the 50% growth inhibitory concentration (GI50) in test [1] (setting [2]) is 1.28 µM; in the test on HS27 fibroblasts, above 20 µM.

With `CC(=O)Nc1cccc2c(Oc3cc(NC(=O)c4cc(C(F)(F)F)cc(C(F)(F)F)c4)ccc3C)ccnc12` [Compound 1m, N-[3-(8-acetylaminoquinolin-4-yloxy)-4-methylphenyl]-3,5-bistrifluoromethylbenzamide], the results for the concentration for 50% growth inhibition (GI50) (in test [1] (A375 melanoma tumor cells); in test [1] (setting [2]); in the test with HS27 fibroblasts) were 0.77 µM, 0.77 to 0.8 µM and above 20 µM, respectively.

Turning to `CC(=O)Nc1cccc2c(Oc3cc(NC(=O)c4ccc([N+](=O)[O-])c(C(F)(F)F)c4)ccc3C)ccnc12` [Compound 1n, N-[3-(8-acetylaminoquinolin-4-yloxy)-4-methylphenyl]-4-nitro-3-trifluoromethylbenzamide], the concentration for 50% growth inhibition (GI50) is 0.79 µM in test [1] (A375 melanoma tumor cells), 0.77 to 0.8 µM in test [1] (setting [2]) and above 20 µM in the test with HS27 fibroblasts.

Consider `CC(=O)Nc1cccc2c(Oc3cc(NC(=O)c4cc(N5CCC(O)CC5)cc(C(F)(F)F)c4)ccc3C)ccnc12` [Compound 1o, N-[3-(8-acetylaminoquinolin-4-yloxy)-4-methylphenyl]-3-(4-hydroxypiperidin-1-yl)-5-trifluoromethylbenzamide], for which the 50% growth inhibitory concentration (GI50) (in test [1] (setting [2]); in the test with HS27 fibroblasts) was above 20 µM in each case.

With `CC(=O)Nc1cccc2c(Oc3cc(NC(=O)c4cc(-n5cnc(C)c5)cc(C(F)(F)F)c4)ccc3C)ccnc12` [Compound 1p, N-[3-(8-acetylaminoquinolin-4-yloxy)-4-methylphenyl]-3-(4-methylimidazol-1-yl)-5-trifluoromethylbenzamide], the concentration for 50% growth inhibition (GI50) (in test [1] (setting [2]); with HS27 fibroblasts) was above 20 µM in each case.

For `CC(=O)Nc1cccc2c(Oc3cc(NC(=O)c4ccccc4Cl)ccc3C)ccnc12` [Compound 1q, N-[3-(8-acetylaminoquinolin-4-yloxy)-4-methylphenyl]-2-chlorobenzamide], the GI50 in test [1] (setting [2]) is 2.12 µM; in the test with HS27 fibroblasts, above 20 µM.

`CC(=O)Nc1cccc2c(Oc3cc(NC(=O)c4cc(C)on4)ccc3C)ccnc12` [Compound 1r, N-[3-(8-acetylaminoquinolin-4-yloxy)-4-methylphenyl]-5-methylisoxazole-3-carboxylic acid amide]: the GI50 (in test [1] (setting [2]); in the test with HS27 fibroblasts) was above 20 µM in each case.

Take `Cc1ccc(NC(=O)c2ccc(Cl)c(C(F)(F)F)c2)cc1Oc1ccnc2c(NC(=O)c3ccccc3)cccc12` [Compound 1s, N-[3-(8-benzoylaminoquinolin-4-yloxy)-4-methylphenyl]-4-chloro-3-trifluoromethylbenzamide]: the GI50 in test [1] (setting [2]) was 1.03 µM; in the test on HS27 fibroblasts, above 20 µM.

Regarding `CNC(=O)c1cc(Oc2ccc(NC(=O)Nc3ccc(Cl)c(C(F)(F)F)c3)cc2)ccn1` [Sorafenib, reference compound], the results for the GI50 (in test [1] (setting [2]); with HS27 fibroblasts) were 5.58 µM and 7.85 µM, respectively.
